The source of these data is patent publication US8470889B2 (TRT Pharma Inc., priority 2008, dated 2013).

Like-named read-outs stand apart in the source and are kept apart here.

In series [1] the test system is MDA PCa 2b cells.
Description: (§2) MDA PCa 2b was seeded at the same density in medium BRFF-HPC1 (Athena Enzyme Systems, Baltimore, Md., USA) supplemented with 20% FBS. After overnight incubation, the medium was changed to a fresh medium containing different concentrations of test compounds diluted from stock DMSO solution. The final concentration of DMSO is 0.5%. After 72 h of incubation with test compounds, 20 μL of 3-(4,5-dimethyl thiazol-2-yl)-2,5-diphenyltetrazolium bromide (MTT) solution (5 mg/mL in PBS) were added to each well and incubated further for 2 h. Next, the supernatant was aspirated and the MTT formazan formed by metabolically viable cells was dissolved in 100 μL of isopropanol. The plates were mixed for 30 min, and the absorbance was measured at 600 nm on a plate reader (FLUOstar OPTIMA, BMG LabTech). All samples were in triplicate. The IC50 values were determined from dose-response curves by nonlinear regression using PRISM v5.00 (GraphPad Software Inc, La Jolla, Calif., USA).
(§3) The in vitro cytotoxicity of 1-20 were evaluated by MTT assays in a panel of prostate cancer cell lines, including LNCaP, MDA PCa 2b, 22Rv1, C4-2B and PC-3.
In another series the test system is MCF-7 cells. The series is described as follows: Growth inhibition, MCF-7 breast cancer cells. The settings on record: for IC50: Table 10, read-out: Cytotoxicity, IC50 (μM) MCF-7. The class given is cell-based. An excerpt: (§1) All samples were in triplicate.
Series [2] deals with 22Rv1 cells.
The next series has as its target T1, wild-type human AR (Homo sapiens, UniProt P10275).
T1 construct: utilizing plasmid expressing a full length of AR; expressed in transfected cells; host or cells: PC-3 cells, plasmid pCMV-AR-wt
T1 sequence (P10275 1-920): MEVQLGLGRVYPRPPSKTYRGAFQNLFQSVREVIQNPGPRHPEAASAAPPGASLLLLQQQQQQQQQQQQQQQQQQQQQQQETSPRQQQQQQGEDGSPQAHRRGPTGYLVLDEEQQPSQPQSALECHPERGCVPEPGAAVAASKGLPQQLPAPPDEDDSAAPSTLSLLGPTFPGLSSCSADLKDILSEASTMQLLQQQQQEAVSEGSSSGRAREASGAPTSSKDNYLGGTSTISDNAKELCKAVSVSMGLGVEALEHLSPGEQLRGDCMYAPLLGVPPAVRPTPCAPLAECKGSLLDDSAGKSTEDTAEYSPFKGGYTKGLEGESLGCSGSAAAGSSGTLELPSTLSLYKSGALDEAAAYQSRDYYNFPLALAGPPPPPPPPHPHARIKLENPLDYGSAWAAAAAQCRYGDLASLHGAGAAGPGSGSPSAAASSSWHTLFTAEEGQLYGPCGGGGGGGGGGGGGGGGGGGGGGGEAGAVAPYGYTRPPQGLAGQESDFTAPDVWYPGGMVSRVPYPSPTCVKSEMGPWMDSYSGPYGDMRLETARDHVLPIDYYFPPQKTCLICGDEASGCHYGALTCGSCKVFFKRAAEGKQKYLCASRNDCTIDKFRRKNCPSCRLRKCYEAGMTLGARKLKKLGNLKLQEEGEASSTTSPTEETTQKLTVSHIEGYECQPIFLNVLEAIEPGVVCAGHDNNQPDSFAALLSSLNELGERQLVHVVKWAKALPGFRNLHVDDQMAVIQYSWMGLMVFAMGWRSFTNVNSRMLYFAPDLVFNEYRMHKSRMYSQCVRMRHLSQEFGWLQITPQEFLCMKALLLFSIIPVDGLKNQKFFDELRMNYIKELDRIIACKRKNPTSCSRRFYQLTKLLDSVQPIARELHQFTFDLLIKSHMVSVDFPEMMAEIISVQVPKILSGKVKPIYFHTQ
The series can be described thus: Luciferase assay for AR transactivation, wild-type AR, PC-3 cells. Type of series: cell-based. Also noted: Antiandrogenic activity evaluated by luciferase assay in PC-3 cells WT: key to the marks not given beside the values. The settings on record: 0.1 nM DHT; for suppression of DHT-induced transactivation of wild-type AR: test compound 0.1-1 μM, PC-3 cells; for Antiandrogenic activity evaluated by luciferase assay in PC-3 cells WT: test compound 1 μM. How it is done:
PC-3 cells were transiently transfected with pCMV-MMTV-Luc, Renilla null luciferase and AR expressing plasmids. The cells were treated with 0.1 nM DHT with and without test compound for 24 hr. Relative luciferase activity was determined by dual luciferase assay kit (Promega), standardized to Renilla luciferase control and normalized to 0.1 nM DHT without test compound (100%).
After 16 h, the cells were treated with 0.1 nM of DHT and test compounds at the designated concentration. After further 24 h, the cells were lysed in 100 μL/well passive lysis buffer, and 20 μL of the cell lysates was used for detection of the luciferase activity using Dual Luciferase Assay System (Promega). All experiments were run in triplicate. Relative luciferase activity is determined as the ratio of inducible firefly luciferase luminescence divided by the luminescence of the renilla luciferase control normalized to 0.1 nM DHT without test compounds.
The potency of antagonistic activity: ++>+.
PC-3 cells were transiently transfected with plasmid expressing wild type human AR and MMTV-Luc. […] RLU, relative luciferase units, were normalized to that of 0.1 nM DHT alone.

A further series has as its system H-1975 cells. The series can be described thus: Growth inhibition, H-1975 lung cancer cells. The settings on record: for IC50: Table 10, read-out: Cytotoxicity, IC50 (μM) H-1975. Type of series: cell-based.
From the text: as §1

Series [3] has as its system C4-2B cells.
Another series deals with MDA-MB-231 cells. The series is described as follows: Growth inhibition, MDA-MB-231 breast cancer cells. The settings on record: for IC50: Table 10, read-out: Cytotoxicity, IC50 (μM) MDA-M B231. The class given is cell-based.
From the text: as §1

Series [4] has as its system PC-3 cells.
Description: as §2, §3
Series [5] has as its system C4-2B cells. The series is described as follows: MTT cell growth inhibition, C4-2B.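 Note: cells treated with a dilution series for 72 h, then MTT added and absorbance read at 600 nm, IC50 fitted from dose-response curves by nonlinear regression.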 The settings on record: read-out: Cellular IC50 (μM) C4-2B, Table 9.
Series [6] deals with PC-3 cells. The series can be described thus: MTT cell growth inhibition, PC-3.
Description: as §2, §3
A further series deals with Bic-LNCaP cells. The series is described as follows: MTT cellular growth, Bic-LNCaP. The settings on record: FIG. 10. Type of series: cell-based.
Series [7] relates to MDA PCa 2b cells. The series is described as follows: MTT cell growth inhibition, MDA PCa 2b.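 Note: MDA PCa 2b prostate cancer cells in BRFF-HPC1 with 20% FBS, exposed to compounds for 72 h, viable-cell MTT formazan read as absorbance at 600 nm, 0.5% DMSO vehicle.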 The settings on record: MTT.
Description: as §2, §3
A further series relates to HP-LNCaP cells. The series is described as follows: MTT cellular growth, HP-LNCaP. Type of series: cell-based. The settings on record: FIG. 10. How it is done:
HP-LNCaP cells were grown in the androgen-depleted medium (FIG. 9A) and grow more aggressively than LNCaP cells in the whole medium (FIG. 9B). Cellular growth was evaluated by MTT assays. […] HP-LNCaP cells over-express AR protein (FIG. 10C).

Series [8] deals with 22Rv1 cells. The series is described as follows: MTT cell growth inhibition, 22Rv1. The settings on record: read-out: Cellular IC50 (μM) 22Rv1; Table 9; MTT.
The target in series [9] is T2, hormone-binding pocket of the AR-LBD (Rattus norvegicus, UniProt P15207).
T2 construct: purchased Invitrogen P3018
T2 sequence (P15207 651-882 limits assumed): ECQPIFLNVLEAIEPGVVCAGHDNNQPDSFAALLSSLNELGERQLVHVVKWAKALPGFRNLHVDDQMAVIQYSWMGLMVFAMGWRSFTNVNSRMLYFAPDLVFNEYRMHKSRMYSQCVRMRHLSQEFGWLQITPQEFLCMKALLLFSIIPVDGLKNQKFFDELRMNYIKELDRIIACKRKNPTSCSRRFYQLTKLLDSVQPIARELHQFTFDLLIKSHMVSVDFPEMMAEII
The series is described as follows: AR fluorescence polarization (FP) competitor assay. The settings on record: FIG. 8. An excerpt:
The fluorescence polarization was used as a read-out and normalized to that of DMSO vehicle. Results are reported as average±s.d. of experiments performed in triplicates. DHT is included as a positive control.
On the technique in general: In fluorescence polarisation assays a small probe gives low polarisation when free and higher when bound to something large.

The mark [10] stands for this setting: read-out: Cellular IC50 (μM) PC-3, Table 9.

Take `CC1=C(/C=C/C(=O)/C=C/c2cccc(C(F)(F)F)c2)C(C)(C)CCC1O` (racemic) [Compound B25]: the IC50 (usually the concentration that inhibits the measured activity by half) in the series with MDA PCa 2b cells [1] is 2600 nM; in the series on MCF-7 cells, 5.2 µM; in the series on 22Rv1 cells [2] it was 1700 nM; in the series on H-1975 cells, 6.3 µM; in the series on C4-2B cells [3], 1400 nM; in the series with MDA-MB-231 cells it was 4.4 µM. In addition, in the series on PC-3 cells [4], inhibition was half-maximal at 3500 nM (IC50). Besides, in the series on MCF-7 cells, the “effect in MCF-7 breast cancer cell line” value is reported as “effective”. At wild-type human AR, the “suppression of DHT-induced transactivation of wild-type AR” value was “modest antiandrogenic activity”. The “effect in H-1975 lung cancer cell line” value in the series on H-1975 cells is “effective”. The “effect in MDA-MB-231 breast cancer cell line” value with MDA-MB-231 cells is given as “effective”.

On to `CC1(C)CCC(O)C=C1/C=C/C(=O)/C=C/c1cnc2ccccc2c1` (stereo not drawn) [Compound B95], for which the IC50 in the series on MDA PCa 2b cells [1] (human, 72 h) came to 1300 nM; in the series with C4-2B cells [5], 1.4 µM; in the series on PC-3 cells [6] (setting [10]) it was 2.3 µM; in the series with MCF-7 cells (Homo sapiens, MCF7) it was 5.5 µM; with 22Rv1 cells [2] (human, 72 h) it was 1100 nM; with H-1975 cells (Homo sapiens, NCI-H1975), 4.8 µM. For the same molecule, the IC50 in the series on C4-2B cells [3] (human, 72 h) stood at 870 nM; with MDA-MB-231 cells (Homo sapiens, MDA-MB-231), 3.6 µM; with MDA PCa 2b cells [7] (read-out: Cellular IC50 (μM) PCa 2b, Table 9), 1.3 µM; with 22Rv1 cells [8] it was 1.2 µM; with PC-3 cells [4] (human, 72 h), 2200 nM. In the series with MCF-7 cells, the “effect in MCF-7 breast cancer cell line” value is given as “effective”. The “activity against Bic-LNCaP cells” value with Bic-LNCaP cells is “remains active”. In addition, the “suppression of DHT-induced transactivation of wild-type AR” value on wild-type human AR was “effective”. Moreover, the “Antiandrogenic activity evaluated by luciferase assay in PC-3 cells WT” value at wild-type human AR is listed as “++”. In addition, in the series with H-1975 cells, the “effect in H-1975 lung cancer cell line” value was “effective”. Moreover, the “effect in MDA-MB-231 breast cancer cell line” value in the series with MDA-MB-231 cells was “effective”. The “activity against HP-LNCaP cells” value in the series with HP-LNCaP cells is recorded as “remains active”. For the same molecule, the “competitive binding to the hormone-binding pocket of the AR-LBD” value in series [9] is listed as “competitive binding”.

Consider `CC1(C)CCC(O)C=C1/C=C/C(=O)/C=C/c1csc2ccccc12` (stereo not drawn) [Compound B92], for which the IC50 in the series with C4-2B cells [5] was 1.1 µM; in the series with PC-3 cells [6] (setting [10]) it was 3.3 µM; with PC-3 cells [6] (read-out: Cytotoxicity in prostate cancer cell lines IC50 (μM), PC-3, Part D table, 72 hours, I.A. = Inactive) it was 2 µM; in the series on MDA PCa 2b cells [7] (read-out: Cytotoxicity in prostate cancer cell lines IC50 (μM), PCa-2b, Part D table, 72 hours), 0.87 µM; in the series on 22Rv1 cells [8], 1.5 µM. Also, the “Antiandrogenic activity evaluated by luciferase assay in PC-3 cells WT” value at wild-type human AR was “++”.
